Source: paper PMC9814779, “A triple farnesoid X receptor and peroxisome proliferator-activated receptor α/δ activator reverses hepatic fibrosis in diet-induced NASH in mice” (Communications Chemistry, 2020)
Read-outs that look alike come from different tables or passages of the source.

Legend:
Format in all cases: cell-based
Set-up in all cases: Emax: dose or concentration left out as unconfirmed
[1] = target: T1, human PPARδ ligand-binding domain (Gal4 chimera) (Homo sapiens, UniProt Q03181); assay: Gal4 hybrid reporter gene assay, PPARδ; conditions: for EC50: mean ± SEM; for Emax: read-out: max. rel. act. PPARδ
T1 construct: coding for the hinge region and LBD of the canonical isoform of the respective nuclear receptor; expressed in transfected cells; host or cells: HEK293T
T1 sequence (Q03181 211-439 limits assumed): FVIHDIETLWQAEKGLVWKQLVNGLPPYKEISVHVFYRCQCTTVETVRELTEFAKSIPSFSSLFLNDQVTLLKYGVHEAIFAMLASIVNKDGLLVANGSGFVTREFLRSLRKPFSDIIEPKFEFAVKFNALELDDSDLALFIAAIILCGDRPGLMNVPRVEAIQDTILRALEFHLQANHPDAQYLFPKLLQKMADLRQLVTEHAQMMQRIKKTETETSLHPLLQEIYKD

[2] = target: T2, human FXR:retinoid X receptor (RXR) heterodimer (Homo sapiens, UniProt Q96RI1); assay: Full-length FXR reporter gene assay (BSEP response element) in HeLa cells; conditions: for Emax: read-out: max. rel. act. FXR
T2 construct: pcDNA3-hFXR[32] and pSG5-hRXR[33] served for receptor overexpression in the full-length FXR assay; expressed in transfected cells; host or cells: HeLa
T2 sequence (P19793 whole entry): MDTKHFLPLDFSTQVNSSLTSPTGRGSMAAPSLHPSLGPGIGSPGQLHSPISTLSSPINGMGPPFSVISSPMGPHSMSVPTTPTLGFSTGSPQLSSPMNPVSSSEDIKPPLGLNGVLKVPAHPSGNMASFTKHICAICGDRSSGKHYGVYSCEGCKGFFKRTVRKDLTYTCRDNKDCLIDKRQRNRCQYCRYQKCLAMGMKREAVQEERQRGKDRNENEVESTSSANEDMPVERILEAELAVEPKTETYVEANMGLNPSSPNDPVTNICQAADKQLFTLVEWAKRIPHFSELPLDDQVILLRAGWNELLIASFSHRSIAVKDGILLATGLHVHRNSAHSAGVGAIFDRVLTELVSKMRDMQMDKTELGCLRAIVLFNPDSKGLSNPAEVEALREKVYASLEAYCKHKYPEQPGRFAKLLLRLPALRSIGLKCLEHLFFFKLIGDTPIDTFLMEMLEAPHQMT
T2 sequence (Q96RI1 whole entry): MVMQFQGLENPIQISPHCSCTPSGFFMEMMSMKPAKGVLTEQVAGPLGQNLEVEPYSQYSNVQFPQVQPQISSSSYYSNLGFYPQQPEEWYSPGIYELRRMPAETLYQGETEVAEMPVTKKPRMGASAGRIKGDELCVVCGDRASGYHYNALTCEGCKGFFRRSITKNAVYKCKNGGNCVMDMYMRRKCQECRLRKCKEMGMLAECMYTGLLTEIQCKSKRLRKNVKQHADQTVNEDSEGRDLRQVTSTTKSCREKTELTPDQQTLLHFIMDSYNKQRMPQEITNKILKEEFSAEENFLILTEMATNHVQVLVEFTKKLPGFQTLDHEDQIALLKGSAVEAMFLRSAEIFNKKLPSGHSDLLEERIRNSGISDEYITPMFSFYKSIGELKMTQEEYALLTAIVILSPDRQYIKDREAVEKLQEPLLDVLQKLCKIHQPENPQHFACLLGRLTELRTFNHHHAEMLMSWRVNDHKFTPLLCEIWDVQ

[3] = target: T3, human PPARα ligand-binding domain (Gal4 chimera) (Homo sapiens, UniProt Q07869); assay: Gal4 hybrid reporter gene assay, PPARα; conditions: for EC50: mean ± SEM; for Emax: read-out: max. rel. act. PPARα
T3 construct: coding for the hinge region and LBD of the canonical isoform of the respective nuclear receptor; expressed in transfected cells; host or cells: HEK293T
T3 sequence (Q07869 239-466 limits assumed): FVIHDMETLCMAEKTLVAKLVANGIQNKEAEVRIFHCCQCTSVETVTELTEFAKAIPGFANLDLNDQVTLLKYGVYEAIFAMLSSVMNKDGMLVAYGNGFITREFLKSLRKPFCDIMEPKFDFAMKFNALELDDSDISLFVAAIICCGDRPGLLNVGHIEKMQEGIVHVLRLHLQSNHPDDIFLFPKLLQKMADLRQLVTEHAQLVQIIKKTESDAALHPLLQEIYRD

[4] = target: T4, human PPARγ ligand-binding domain (Gal4 chimera) (Homo sapiens, UniProt P37231); assay: Gal4 hybrid reporter gene assay, PPARγ
T4 construct: coding for the hinge region and LBD of the canonical isoform of the respective nuclear receptor; expressed in transfected cells; host or cells: HEK293T
T4 sequence (P37231 238-503 limits assumed): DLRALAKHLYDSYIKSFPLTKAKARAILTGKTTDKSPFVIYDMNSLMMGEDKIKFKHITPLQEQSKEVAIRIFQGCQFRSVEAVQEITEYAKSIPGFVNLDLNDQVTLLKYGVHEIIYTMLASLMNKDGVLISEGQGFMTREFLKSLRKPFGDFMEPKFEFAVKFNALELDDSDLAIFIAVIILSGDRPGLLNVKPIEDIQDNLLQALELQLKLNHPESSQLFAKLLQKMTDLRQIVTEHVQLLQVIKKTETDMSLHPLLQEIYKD

[5] = EC50 [μM] PPARδ, HEK293T, n = 3
[6] = HeLa, mean ± SEM, n = 3, read-out: EC50 [μM] FXR
[7] = EC50 [μM] PPARα, HEK293T, n = 3
[8] = HEK293T, n = 3, read-out: EC50 [μM] PPARδ
[9] = HEK293T, mean ± SEM, n = 3, read-out: EC50 [μM] PPARγ

SMILES | EC50 ([1]; Supplementary Table 1, chromene derivatives, n ≥ 2, read-out: PPAR EC50) | EC50 ([2]; Supplementary Table 1, chromene derivatives, mean ± SEM, n ≥ 2, read-out: FXR EC50) | EC50 ([3]; PPAR EC50 [M], Supplementary Table 1, chromene derivatives, n ≥ 2) | EC50 ([4]; Supplementary Table 1, chromene derivatives, mean ± SEM, n ≥ 2, read-out: PPAR EC50) | Emax ([4]; read-out: PPAR max. rel. act.) | EC50 [1, 5] | Emax ([2]; HeLa) | EC50 [2, 6] | EC50 [3, 7] | Emax [3] | EC50 [4] | Emax ([4]; read-out: max. rel. act. PPARγ) | Emax [1] | EC50 [1, 8] | EC50 [4, 9] | EC50 [2]
O=C(O)CCc1cccc(NC(=O)c2ccccc2NC(=O)C2=Cc3cccc(O)c3OC2)c1 [S11] | > 30 µM | > 10 µM | > 3e-05 M | 7.9 ± 1.2 µM | 6.3 ± 0.5% | – | – | – | – | – | – | – | – | – | – | –
O=C(O)Cc1ccccc1NC(=O)c1ccccc1NC(=O)c1ccc2ccccc2c1 [compound 7] | – | – | – | – | – | > 10 µM | 31% | 9.2 ± 0.2 µM | 1.4e-06 ± 1e-07 M | 33% | 1.7 ± 0.1 µM | 17 ± 10% | – | – | – | –
O=C(O)CCc1cccc(NC(=O)c2ccccc2NC(=O)c2ccc3ccccc3c2)c1 [compound 9] | – | – | – | – | – | 0.65 ± 0.03 µM | 20% | 2.6 ± 0.3 µM | 1e-06 ± 2e-07 M | 31% | 2.6 ± 0.3 µM | 19% | 28% | – | – | –
O=C(O)CCc1ccc(NC(=O)c2ccccc2NC(=O)c2ccc3ccccc3c2)cc1 [compound 12] | – | – | – | – | – | – | 21 ± 10% | 2.1 ± 0.1 µM | > 3e-05 M | – | – | – | – | > 30 µM | > 30 µM | –
O=C(O)COc1cccc(NC(=O)c2ccccc2NC(=O)c2ccc3ccccc3c2)c1 [compound 13] | – | – | – | – | – | 10 ± 1 µM | 19% | 5 ± 1 µM | 1e-05 ± 1e-06 M | 35% | 19 ± 1 µM | 11% | 43% | – | – | –
O=C(O)CNc1cccc(NC(=O)c2ccccc2NC(=O)c2ccc3ccccc3c2)c1 [compound 14] | – | – | – | – | – | – | 31% | 1.3 ± 0.1 µM | > 3e-05 M | – | – | 7.7% | 83% | 3.5 ± 0.2 µM | 5.7 ± 0.1 µM | –
CC(C)(Nc1cccc(NC(=O)c2ccccc2NC(=O)c2ccc3ccccc3c2)c1)C(=O)O [compound 15] | – | – | – | – | – | 3.6 ± 0.2 µM | 10% | 0.45 ± 0.01 µM | 1.7e-06 ± 1e-07 M | 71% | 5.1 ± 0.9 µM | 18% | 42% | – | – | –
Cc1cccc(C(=O)Nc2cccc(CCC(=O)O)c2)c1NC(=O)c1ccc2ccccc2c1 [compound 16] | – | – | – | – | – | 2.7 ± 0.3 µM | – | > 10 µM | 6.2e-06 ± 1e-07 M | 31% | 7.1 ± 1.3 µM | 6% | 30% | – | – | –
Cc1ccc(C(=O)Nc2cccc(CCC(=O)O)c2)c(NC(=O)c2ccc3ccccc3c2)c1 [compound 17] | – | – | – | – | – | 0.17 ± 0.02 µM | 21% | 1.5 ± 0.1 µM | 1.7e-06 ± 2e-07 M | 67% | 1.4 ± 0.3 µM | 21% | 34% | – | – | –
Cc1ccc(NC(=O)c2ccc3ccccc3c2)c(C(=O)Nc2cccc(CCC(=O)O)c2)c1 [compound 18] | – | – | – | – | – | 0.21 ± 0.01 µM | – | > 10 µM | 8e-07 ± 2e-08 M | 25% | 3.3 ± 0.1 µM | 23% | 14% | – | – | –
Cc1cccc(NC(=O)c2ccc3ccccc3c2)c1C(=O)Nc1cccc(CCC(=O)O)c1 [compound 19] | – | – | – | – | – | 6.3 ± 0.9 µM | – | > 10 µM | 7.4e-06 ± 4e-07 M | 15% | 11 ± 2 µM | 2.5% | 20% | – | – | –
O=C(O)CCc1cccc(NC(=O)c2ccc(Cl)cc2NC(=O)c2ccc3ccccc3c2)c1 [compound 20] | – | – | – | – | – | 1.9 ± 0.2 µM | – | > 10 µM | 3e-06 ± 1e-07 M | 16% | 1.4 ± 0.1 µM | 6% | 16% | – | – | –
O=C(O)CCc1cccc(NC(=O)c2ccc(O)cc2NC(=O)c2ccc3ccccc3c2)c1 [compound 21] | – | – | – | – | – | 2.4 ± 0.1 µM | 16% | 4.5 ± 0.1 µM | 5.3e-06 ± 5e-07 M | 54% | 2.3 ± 0.3 µM | 20% | 34% | – | – | –
COc1ccc(C(=O)Nc2cccc(CCC(=O)O)c2)c(NC(=O)c2ccc3ccccc3c2)c1 [compound 22] | – | – | – | – | – | 0.06 ± 0.01 µM | 22% | 11 ± 3 µM | 3e-07 ± 4e-08 M | 43% | 1.3 ± 0.1 µM | 27% | 32% | – | – | –
O=C(O)CCc1cccc(NC(=O)c2ccc(OC(F)(F)F)cc2NC(=O)c2ccc3ccccc3c2)c1 [compound 23] | – | – | – | – | – | 0.38 ± 0.06 µM | 12% | – | 1.1e-06 ± 3e-07 M | 31% | 1 ± 0.2 µM | 15% | 30% | – | – | 1.1 ± 0.1 µM
O=C(O)CCc1cccc(NC(=O)c2cc(Cl)ccc2NC(=O)c2ccc3ccccc3c2)c1 [compound 25] | – | – | – | – | – | 0.28 ± 0.03 µM | 12% | 2.6 ± 0.4 µM | 9e-07 ± 2e-07 M | 42% | 6 ± 1 µM | 26% | 17% | – | – | –
O=C(O)CCc1cccc(NC(=O)c2cc(O)ccc2NC(=O)c2ccc3ccccc3c2)c1 [compound 26] | – | – | – | – | – | 10 ± 2 µM | – | > 10 µM | 8.9e-06 ± 8e-07 M | 28% | 13 ± 1 µM | 9% | 24% | – | – | –
COc1ccc(NC(=O)c2ccc3ccccc3c2)c(C(=O)Nc2cccc(CCC(=O)O)c2)c1 [compound 27] | – | – | – | – | – | 0.36 ± 0.01 µM | – | > 10 µM | 2.3e-07 ± 4e-08 M | 53% | 2 ± 0.1 µM | 15% | 23% | – | – | –
O=C(O)CCc1cccc(NC(=O)c2cc(OC(F)(F)F)ccc2NC(=O)c2ccc3ccccc3c2)c1 [compound 28] | – | – | – | – | – | 0.1 ± 0.01 µM | – | > 10 µM | 2.1e-07 ± 2e-08 M | 54% | 1.1 ± 0.2 µM | 18% | 19% | – | – | –
O=C(O)CCc1cccc(NC(=O)c2cc3c(cc2NC(=O)c2ccc4ccccc4c2)OCO3)c1 [compound 29] | – | – | – | – | – | 0.4 ± 0.1 µM | 14% | 2.9 ± 0.6 µM | 4.6e-07 ± 3e-08 M | 25% | 0.9 ± 0.3 µM | 15% | 31% | – | – | –
O=C(O)CCc1cccc(NC(=O)c2ccccc2NC(=O)c2ccc(-c3ccccc3)cc2)c1 [compound 30] | – | – | – | – | – | – | 33% | 1.3 ± 0.2 µM | > 3e-05 M | – | – | 16 ± 10% | 38% | 2.5 ± 0.5 µM | 1.6 ± 0.2 µM | –
O=C(O)CCc1cccc(NC(=O)c2ccccc2NC(=O)c2ccc(-c3ccco3)cc2)c1 [compound 31] | – | – | – | – | – | 0.2 ± 0.01 µM | 23% | 5.4 ± 0.1 µM | 1.8e-06 ± 3e-07 M | 22% | 2.2 ± 0.1 µM | 9% | 43% | – | – | –
O=C(O)CCc1cccc(NC(=O)c2ccccc2NC(=O)c2ccc(-c3cccs3)cc2)c1 [compound 33] | – | – | – | – | – | 0.64 ± 0.06 µM | 21% | 1.7 ± 0.4 µM | 1.5e-06 ± 1e-07 M | 27% | 1.4 ± 0.2 µM | 11% | 35% | – | – | –
O=C(O)CCc1cccc(NC(=O)c2ccccc2NC(=O)c2ccc(-c3ccsc3)cc2)c1 [compound 34] | – | – | – | – | – | 1.6 ± 0.3 µM | 18% | 0.6 ± 0.1 µM | 1.7e-06 ± 1e-07 M | 32% | 1.3 ± 0.2 µM | 17% | 59% | – | – | –
O=C(O)CCc1cccc(NC(=O)c2ccccc2NC(=O)c2ccc(-c3ccon3)cc2)c1 [compound 35] | – | – | – | – | – | 5.6 ± 0.4 µM | 32% | 6.8 ± 0.6 µM | 8e-06 ± 4e-07 M | 11% | 5.8 ± 0.8 µM | 30% | 29% | – | – | –
